One compound from patent publication US6680025B2, “Device and method for photoactivation” (Cerus Corporation, priority 1989, dated 2004) can be followed below.

In the test the test system is HIV 115-mer PCR product carryover. Put plainly: Post-amplification sterilization, isopsoralen added after amplification (Example 54). As to conditions: for sterilization of carryover: AMDMIP 100 μg/ml, PTI 15 minutes, 10^6 copies. Format: biochemical. The source says:
In this embodiment, the method of sterilization comprises: 1) providing PCR reagents, 2) providing template, 3) providing polymerase, 4) mixing PCR reagents, template, and polymerase to initiate PCR, 5) cycling to provide PCR product, 6) providing isopsoralen, 7) adding isopsoralen to PCR product, and 8) irradiating PCR product.
For the purposes of this determination, the steps of the following experiment include (see FIG. 40): a) preparing template, b) providing template, c) providing PCR reagents, d) providing polymerase, e) mixing PCR reagents, template, and polymerase to initiate PCR, f) cycling to provide PCR product, g) carrying over of PCR product into new tubes, h) providing isopsoralen, i) adding isopsoralen to the carryover, j) irradiating, k) addition of new PCR reagents, and 1) subsequent PCR.
Steps a), b), c), d), e), and f). PCR product was provided as described earlier.
Step g) Carrying over of PCR product. Aliquots of PCR product were added into new reaction tubes at 10^6 copies per tube.
Step h) Providing Isopsoralen. AMDMIP was synthesized as described and diluted.
Step i) Addition of Isopsoralen ANDDMIP (100 μg/ml, approximately 10^−4 M) was added reaction vessels containing carryover.
Step i) Irradiation. Irradiation was performed on the PTI device to avoid photoproduct. Three of the new reaction tubes were irradiated while the others were left unirradiated as controls. Irradiation was for 15 minutes at RT as above.
Step k) PCR Reagents and Tag Polymerase Were Added to Appropriate Concentrations. The final volume was increased two fold such that AMDMIP photoproducts were at 50 μg/ml.
Step l) Subsequent PCR. Amplification was performed, in closed reaction vessels using primer pair SK-38/39 for 20, 25 or 30 cycles, using the temperature profile for cycling described above in the presence of α-^32P-dCTP.

Consider `Cc1oc2ccc3c(C)cc(=O)oc3c2c1CN` [AMDMIP, 4′-Aminomethyl-4,5′-dimethylisopsoralen], for which the “reamplification of carryover with AMDMIP, not light-treated” value (20, 25, 30 cycles) is on record as “show amplification”. In addition, the sterilization of carryover result is, setting by setting: (20 cycles) “sterilization appears to be complete”; (25 cycles) “reduced relative to controls”; (30 cycles) “no significant sterilization is observed”.
